In patent US20240150321A1, “PYRAZOLYLSULFONAMIDE COMPOUNDS AND THEIR USE IN THERAPY” (HOTSPOT THERAPEUTICS, INC., priority 2022, published 2024) one finds IC50 data, which are given here for 29 compounds.

One test concerns the target Avi-tagged FL MALT-1 (Homo sapiens (Human), UniProt Q9UDY8). As to the kind of experiment: MALT-1 Fluorogenic Peptide Cleavage Assay (MALT1 inhibition assay). To be noted: Ac-LRSR-AMC peptide substrate, 30 min pre-incubation, 90 min reaction at room temperature. In kind it is biochemical. In a few lines: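 Full-length Avi-tagged human MALT-1 (40 nM working stock) pre-incubated 30 min at RT with compound in 25 mM HEPES pH 6.89, 660 mM sodium citrate, 1 mM TCEP, […], 0.05% CHAPS, 2% DMSO. Ac-LRSR-AMC added at Km (50 μM working stock) or 10×Km (280 μM working stock); 90 min at RT, AMC fluorescence (ex 342/em 441 nm), IC50 from % inhibition curves.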

Test [1] has as its system NF-kB reporter in Jurkat cells. Briefly: NF-kB reporter assay in Jurkat cells stimulated with aCD3/aCD28/PMA. It is filed as cell-based. To be noted: Homo sapiens; Jurkat cells, 1 hr compound pre-incubation, aCD3/aCD28/PMA stimulation 4 hr, One-Glo readout; read-out: NF-kB Reporter Assay IC50. Summed up:
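Jurkat cells (25,000/well, serum-free RPMI) were pre-incubated 1 h at 37° C with serially diluted compound, then stimulated 4 h with aCD3/aCD28/PMA at final […]. NF-kB reporter activity was read by One-Glo luminescence; IC50 values reported.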

Chain of Avi-tagged FL MALT-1 (Q9UDY8 whole entry): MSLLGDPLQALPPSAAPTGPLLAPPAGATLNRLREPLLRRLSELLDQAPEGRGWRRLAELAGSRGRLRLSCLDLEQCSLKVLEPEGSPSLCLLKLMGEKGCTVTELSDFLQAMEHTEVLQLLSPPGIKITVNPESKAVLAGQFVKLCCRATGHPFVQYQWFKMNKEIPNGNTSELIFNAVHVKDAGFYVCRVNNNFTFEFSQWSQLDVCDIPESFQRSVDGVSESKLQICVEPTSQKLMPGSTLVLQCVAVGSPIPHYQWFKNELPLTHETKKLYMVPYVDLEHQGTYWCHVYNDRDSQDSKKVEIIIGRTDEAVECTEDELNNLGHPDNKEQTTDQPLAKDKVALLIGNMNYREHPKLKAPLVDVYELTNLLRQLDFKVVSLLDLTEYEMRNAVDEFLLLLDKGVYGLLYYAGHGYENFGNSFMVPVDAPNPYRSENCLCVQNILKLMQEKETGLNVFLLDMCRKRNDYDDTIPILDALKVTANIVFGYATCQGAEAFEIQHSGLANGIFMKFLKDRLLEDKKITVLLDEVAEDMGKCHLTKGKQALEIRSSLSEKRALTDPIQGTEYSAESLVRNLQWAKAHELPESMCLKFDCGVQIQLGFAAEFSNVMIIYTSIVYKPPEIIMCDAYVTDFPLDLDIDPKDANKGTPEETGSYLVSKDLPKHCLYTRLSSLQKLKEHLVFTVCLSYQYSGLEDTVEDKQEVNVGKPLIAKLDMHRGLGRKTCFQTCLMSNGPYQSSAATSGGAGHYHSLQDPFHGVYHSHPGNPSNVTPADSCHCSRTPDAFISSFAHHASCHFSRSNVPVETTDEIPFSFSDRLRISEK

One may read the IC50 as the concentration that gives 50% inhibition. Turning to `CCc1ccc2cnn(C)c2c1NS(=O)(=O)c1cnn(-c2ccnc(C)c2)c1` [Compound I-31, N-(6-Ethyl-1-Methyl-1H-Indazol-7-yl)-1-(2-Methylpyridin-4-yl)-1H-Pyrazole-4-Sulfonamide], the IC50 against Avi-tagged FL MALT-1 is not above 0.4 µM; in test [1], 0.4 to 1 µM.
Taken in the same sequence, the figures for `CCc1ccc2cnn(C)c2c1NS(=O)(=O)c1cnn(-c2cc(C)nc(C)c2)c1` [Compound I-32, 1-(2,6-Dimethylpyridin-4-yl)-N-(6-ethyl-1-Methyl-1H-Indazol-7-yl)-1H-Pyrazole-4-Sulfonamide] were not above 0.4 µM and 0.4 to 1 µM.
For `CCc1ccc2cnn(C)c2c1NS(=O)(=O)c1cnn(-c2ccnc(C3CC3)c2)c1` [Compound I-33, 1-(2-Cyclopropylpyridin-4-yl)-N-(6-ethyl-1-Methyl-1H-Indazol-7-yl)-1H-Pyrazole-4-Sulfonamide] the same measures were not above 0.4 µM and less than 0.4 µM.
Taken in the same sequence, the figures for `CCc1ccc2cnn(C)c2c1NS(=O)(=O)c1cnn(-c2cc(C)ccn2)c1` [Compound I-34, N-(6-Ethyl-1-Methyl-1H-Indazol-7-yl)-1-(4-Methylpyridin-2-yl)-1H-Pyrazole-4-Sulfonamide] were not above 0.4 µM and less than 0.4 µM.
Consider `COc1ccc2cnn(C)c2c1NS(=O)(=O)c1cnn(-c2cc(C)ccn2)c1` [Compound I-35, N-(6-Methoxy-1-Methyl-1H-Indazol-7-yl)-1-(4-Methylpyridin-2-yl)-1H-Pyrazole-4-Sulfonamide], for which the results for the IC50 (at Avi-tagged FL MALT-1; in test [1]) were not above 0.4 µM and less than 0.4 µM, respectively.
For `CCc1ccc2cnn(C)c2c1NS(=O)(=O)c1cnn(-c2cc(Cl)ccn2)c1` [Compound I-36, 1-(4-Chloropyridin-2-yl)-N-(6-Ethyl-1-Methyl-1H-indazol-7-yl)-1H-Pyrazole-4-Sulfonamide] the same measures were not above 0.4 µM and less than 0.4 µM.
Taken in the same sequence, the figures for `CCc1ccc2cnn(C)c2c1NS(=O)(=O)c1cnn(-c2ccnc(Cl)c2)c1` [Compound I-37, 1-(2-Chloropyridin-4-yl)-N-(6-Ethyl-1-Methyl-1H-Indazol-7-yl)-1H-Pyrazole-4-Sulfonamide] were not above 0.4 µM and less than 0.4 µM.
In the case of `CCCc1ccc2cnn(C)c2c1NS(=O)(=O)c1cnn(-c2ccnc(C(F)(F)F)c2)c1` [Compound I-38, N-(1-Methyl-6-Propyl-1H-Indazol-7-yl)-1-(2-(Trifluoromethyl) Pyridin-4-yl)-1H-Pyrazole-4-Sulfonamide], the half-maximal inhibitory concentration (IC50) was not above 0.4 µM at Avi-tagged FL MALT-1 and less than 0.4 µM in test [1].
Taken in the same sequence, the figures for `CCc1ccc2[nH]nc(C)c2c1NS(=O)(=O)c1cnn(-c2ccnc(C(F)(F)F)c2)c1` [Compound I-39, N-(5-Ethyl-3-Methyl-1H-Indazol-4-yl)-1-(2-(Trifluoromethyl) Pyridin-4-yl)-1H-Pyrazole-4-Sulfonamide] were not above 0.4 µM and less than 0.4 µM.
For `CCc1ccc2c(c(C)nn2C)c1NS(=O)(=O)c1cnn(-c2ccnc(C(F)(F)F)c2)c1` [Compound I-40, N-(5-ethyl-1,3-dimethyl-1H-Indazol-4-yl)-1-(2-(Trifluoromethyl)Pyridin-4-yl)-1H-Pyrazole-4-Sulfonamide] the same measures were not above 0.4 µM and 0.4 to 1 µM.
For `CCc1ccc2cnn(C)c2c1NS(=O)(=O)c1cnn(-c2ccnc(N(C)C)c2)c1` [Compound I-41, 1-(2-(Dimethylamino)Pyridin-4-yl)-N-(6-ethyl-1-Methyl-1H-Indazol-7-yl)-1H-Pyrazole-4-Sulfonamide] the same measures were not above 0.4 µM and less than 0.4 µM.
Take `CCc1ccc2cnn(C)c2c1NS(=O)(=O)c1cnn(-c2ccc(OC)cn2)c1` [Compound I-42, N-(6-Ethyl-1-Methyl-1H-Indazol-7-yl)-1-(5-Methoxypyridin-2-yl)-1H-Pyrazole-4-Sulfonamide]: the IC50 (at Avi-tagged FL MALT-1; in test [1]) was 0.4 to 1 µM in each case.
As for `CCc1ccc2cnn(C)c2c1NS(=O)(=O)c1cnn(-c2cc(OC(F)(F)F)ccn2)c1` [Compound I-43, N-(6-Ethyl-1-Methyl-1H-Indazol-7-yl)-1-(4-(Trifluoromethoxy) Pyridin-2-yl)-1H-Pyrazole-4-Sulfonamide], the IC50 (on Avi-tagged FL MALT-1; in test [1]) was more than 2.5 µM each time.
As to `CCc1ccc2cnn(C)c2c1NS(=O)(=O)c1cnn(-c2cc(OC)ccn2)c1` [Compound I-44, N-(6-Ethyl-1-Methyl-1H-Indazol-7-yl)-1-(4-Methoxypyridin-2-yl)-1H-Pyrazole-4-Sulfonamide], the IC50 (at Avi-tagged FL MALT-1; in test [1]) was more than 2.5 µM in each case.
Regarding `Cc1n[nH]c2cccc(NS(=O)(=O)c3cnn(-c4ccc(C(F)(F)F)cn4)c3)c12` [Compound I-45, N-(3-Methyl-1H-Indazol-4-yl)-1-(5-(Trifluoromethyl)Pyridin-2-yl)-1H-Pyrazole-4-Sulfonamide], the 50% inhibitory concentration (IC50) was more than 2.5 µM at Avi-tagged FL MALT-1 and less than 0.4 µM in test [1].
For `Cn1cc2ccc(Cl)c(NS(=O)(=O)c3cnn(-c4ccnc(C(F)(F)F)c4)c3)c2n1` [Compound I-47, N-(6-Chloro-2-Methyl-2H-Indazol-7-yl)-1-(2-(Trifluoromethyl) Pyridin-4-yl)-1H-Pyrazole-4-Sulfonamide] the same measures were more than 2.5 µM and more than 2.5 µM.
For `CCc1ccc2cn(C)nc2c1NS(=O)(=O)c1cnn(-c2ccnc(C(F)(F)F)c2)c1` [Compound I-48, N-(6-Ethyl-2-Methyl-2H-Indazol-7-yl)-1-(2-(Trifluoromethyl) Pyridin-4-yl)-1H-Pyrazole-4-Sulfonamide] the same measures were not above 0.4 µM and more than 2.5 µM.
Take `Cc1cc(NS(=O)(=O)c2cnn(-c3ccnc(C(F)(F)F)c3)c2)c2c(cnn2C)c1` [Compound I-49, N-(1,5-Dimethyl-1H-Indazol-7-yl)-1-(2-(Trifluoromethyl) Pyridin-4-yl)-1H-Pyrazole-4-Sulfonamide]: the half-inhibitory concentration (IC50) (at Avi-tagged FL MALT-1; in test [1]) was more than 2.5 µM each time.
As for `COc1ccc2cn(C)nc2c1NS(=O)(=O)c1cnn(-c2ccnc(C(F)(F)F)c2)c1` [Compound I-50, N-(6-Methoxy-2-Methyl-2H-Indazol-7-yl)-1-(2-(Trifluoromethyl)Pyridin-4-yl)-1H-Pyrazole-4-Sulfonamide], the IC50 is 0.4 to 1 µM at Avi-tagged FL MALT-1 and more than 2.5 µM in test [1].
Take `Cc1n[nH]c2cccc(NS(=O)(=O)c3cnn(-c4ccnc(C(F)(F)F)c4)c3)c12` [Compound I-51, N-(3-Methyl-1H-Indazol-4-yl)-1-(2-(Trifluoromethyl)Pyridin-4-yl)-1H-Pyrazole-4-Sulfonamide]: the half-inhibitory concentration (IC50) (on Avi-tagged FL MALT-1; in test [1]) was more than 2.5 µM throughout.
Regarding `COc1ccc2nnn(C)c2c1NS(=O)(=O)c1cnn(-c2ccnc(C(F)(F)F)c2)c1` [Compound I-52], the IC50 is more than 2.5 µM at Avi-tagged FL MALT-1 and 1 to 2.5 µM in test [1].
For `Cn1ncc2ccc(C3CC3)c(NS(=O)(=O)c3cnn(-c4cc(C(F)(F)F)ncn4)c3)c21` [Compound I-53, N-(6-Cyclopropyl-1-Methyl-1H-Indazol-7-yl)-1-(6-(Trifluoromethyl)Pyrimidin-4-yl)-1H-Pyrazole-4-Sulfonamide] the same measures were not above 0.4 µM and less than 0.4 µM.
For `COc1ccc2cnn(C)c2c1NS(=O)(=O)c1cnn(-c2cc(Cl)ccn2)c1` [Compound I-54] the same measures were not above 0.4 µM and less than 0.4 µM.
Taken in the same sequence, the figures for `Cn1ncc2ccc(OC3CC3)c(NS(=O)(=O)c3cnn(-c4ccnc(C(F)(F)F)c4)c3)c21` [Compound I-55, N-(6-Cyclopropoxy-1-Methyl-1H-Indazol-7-yl)-1-(2-(Trifluoromethyl)Pyridin-4-yl)-1H-Pyrazole-4-Sulfonamide] were not above 0.4 µM and 1 to 2.5 µM.
Consider `CCc1ccc2cnn(C)c2c1NS(=O)(=O)c1cnn(-c2cc(C3CC3)ccn2)c1` [Compound I-56, 1-(4-Cyclopropylpyridin-2-yl)-N-(6-Ethyl-1-Methyl-1H-Indazol-7-yl)-1H-Pyrazole-4-Sulfonamide], for which the IC50 against Avi-tagged FL MALT-1 is not above 0.4 µM; in test [1] it was less than 0.4 µM.
For `COc1ccc2cnn(C)c2c1NS(=O)(=O)c1cnn(-c2cc(C3CC3)ccn2)c1` [Compound I-57, 1-(4-Cyclopropylpyridin-2-yl)-N-(6-Methoxy-1-Methyl-1H-Indazol-7-yl)-1H-Pyrazole-4-Sulfonamide] the same measures were not above 0.4 µM and less than 0.4 µM.
Taken in the same sequence, the figures for `COc1cc(NS(=O)(=O)c2cnn(-c3ccnc(C(F)(F)F)c3)c2)c2c(cnn2C)c1` [Compound I-58, N-(5-Methoxy-1-Methyl-1H-Indazol-7-yl)-1-(2-(Trifluoromethyl)Pyridin-4-yl)-1H-Pyrazole-4-Sulfonamide] were more than 2.5 µM and more than 2.5 µM.
Consider `Cc1ccc2cnn(C)c2c1NS(=O)(=O)c1cnn(-c2ccnc(C(F)(F)F)c2)c1` [Compound I-59, N-(1,6-Dimethyl-1H-Indazol-7-yl)-1-(2-(Trifluoromethyl)Pyridin-4-yl)-1H-Pyrazole-4-Sulfonamide], for which the IC50 was not above 0.4 µM on Avi-tagged FL MALT-1 and 0.4 to 1 µM in test [1].
Take `Cc1ccc2cnn(C)c2c1NS(=O)(=O)c1cnn(-c2cc(C(F)(F)F)ccn2)c1` [Compound I-60, N-(1,6-Dimethyl-1H-Indazol-7-yl)-1-(4-(Trifluoromethyl) Pyridin-2-yl)-1H-Pyrazole-4-Sulfonamide]: the results for the IC50 (at Avi-tagged FL MALT-1; in test [1]) were not above 0.4 µM and less than 0.4 µM, respectively.
